According to patent US20060167276A1, “Clausenamide c5-hydroxyl derivatives and n-substituted derivatives, processes for their preparation, its composition and use” (priority 2002, published 2006):

Key:
[1] = in vivo and in vitro; cited from earlier work
[2] = system: C17-2 mouse brain neural stem cells; test: Cell proliferation of mouse brain neural stem cells (MTT, OD 490 nm); type: cell-based; conditions: for Result (OD value): MTT at 4th day, OD 490 nm; for Cell proliferation %: control group = 100%
Method: C17-2 mouse brain neural stem cells (C17-2 cells) were continuously cultured in 1640 medium with 10% horse serum and 10% fetal bovine serum at 5% CO2 and 37° C., dissociated to single cell suspension by 0.1% trypsin solution, centrifuged at 1,000 rpm×5 min and rinsed with medium. The cells were seeded in a 96-well plate, 1×10^3 cells per well, 3 well per group, continuously cultured. After 24 hours, the test compounds were added, doses of each of the C5-hydroxyl substituted clausenamides and N-substituted clausenamide derivatives were 0.1 μM, 1 μM and 10 μM respectively. The growth situation of the cells was observed under a microscope, once daily. At the 4th day, media in each well were pipetted, phosphate buffer solution containing MTT was added. 4 Hours later, the fluid was discarded, and a DMSO solution was added. The cells were incubated at 37° C. for 10 min under shaken. OD values on 490 nm of each well were detected. Set the growth rate of the control group as 100%, and the growth rates of each dose were given by comparison with the control group and t-tested.

rat hippocampus = test: LTP / synaptic transmission in rat hippocampus (population spike amplitude, dentate gyrus); type: in vivo; conditions: for Relative PS (PSA %): lateral ventricle, prior administration = 100
From the text: Male adult SD Rats (5 per group) were anesthetized with 20% (w/v) urethane carbamate (1.0 g·kg^−1, ip) and fixed in a stereotaxic head holder. According to the reference of Pellegrino stereotaxic spectrum of rat, recording electrodes (stainless steel needle of 0.2 mm diameter were insulted except for 0.2 mm tip) were placed in the dentate gyrus granule cell layer. The stimulating electrodes (two stainless steel needles of 0.15 mm diameter coated with Teflon except for the 0.2 mm tip, and the distance between two needles was 0.5 mm) were planted between the fibre of perforant path (PP) in rat. Continuous pulse was provided by electronic stimulator, and delivered to PP through stimulus isolator and stimulating electrodes. Electrode depth was then adjusted until a typical excitatory postsynaptic potential (EPSP) was observed. Electric current was magnified by amplifier and collected by computer, then processed by DataWave software. The stimulus intensity was adjusted to produce population spike (PS) with a slope that was ≈50% of the maximum. Single-pulse test stimuli were at an interval of 30 sec during the experiment. Population spike amplitude (PSA) was recorded and the relatively percent of PSA was calculated according to the formula (PSA/basic value).

[3] = several behavioral studies; cited from earlier work

## CN1C(=O)C(O)C(c2ccccc2)C1(O)C(O)c1ccccc1 (single isomer, unassigned; (-)) [(−)CM2, (−) 5-hydroxyclausenamide]
[1]
  content in the metabolites of (−) clausenamide compared with the corresponding (+) isomers in the metabolites of (+) clausenamide: significantly higher

## O=C(O)CN1C(=O)C(O)C(c2ccccc2)C1C(O)c1ccccc1 (racemic) [(±)III2]
[2]; dose 10^−5 M
  Result (OD value): 0.100 ± 0.018
  Cell proliferation %: 72.99%
[2]; dose 10^−6 M
  Result (OD value): 0.175 ± 0.006
  Cell proliferation %: 127.74%
[2]; dose 10^−7 M
  Result (OD value): 0.218 ± 0.012
  Cell proliferation %: 159.12%
Rat hippocampus; 15 min after administration
  Relative PS (PSA %): 99.41 ± 9.27%
Rat hippocampus; 30 min after administration
  Relative PS (PSA %): 117.34 ± 14.74%
Rat hippocampus; 45 min after administration
  Relative PS (PSA %): 140.2 ± 10.96 %
Rat hippocampus; 60 min after administration
  Relative PS (PSA %): 153.36 ± 13.23 %

## CC(=O)O[C@@H]1C(=O)N(C)[C@@](O)([C@H](O)c2ccccc2)[C@H]1c1ccccc1 [(−)-3-O-AC-II1, (−)-(3S,4S,5S,6R)-3-O-acetyl-5-hydroxy-clausenamide]
[2]; dose 10^−5 M
  Result (OD value): 0.063 ± 0.014
  Cell proliferation %: 45.99%
[2]; dose 10^−6 M
  Result (OD value): 0.072 ± 0.006
  Cell proliferation %: 52.55%
[2]; dose 10^−7 M
  Result (OD value): 0.179 ± 0.004
  Cell proliferation %: 130.66%
Rat hippocampus; 15 min after administration
  Relative PS (PSA %): 78.91 ± 13.90%
Rat hippocampus; 30 min after administration
  Relative PS (PSA %): 83.73 ± 13.59%
Rat hippocampus; 45 min after administration
  Relative PS (PSA %): 94.60 ± 8.87%
Rat hippocampus; 60 min after administration
  Relative PS (PSA %): 102.66 ± 2.88%

## CN1C(=O)C(O)C(c2ccccc2)C1C(O)c1ccccc1 (racemic) [clausenamide]
[3]
  nootropic effect: Significant nootropic effect

## Cc1cccc(C)c1NC(=O)CN1C(=O)C(O)C(c2ccccc2)C1C(O)c1ccccc1 (racemic) [(±)III5]
[2]
  effects on cell proliferation of mouse brain neural stem cells (conclusion): significant effects
[2]; at doses of 0.1 μM and 1 μM
  promotion effects on cell proliferation of mouse brain neural stem cells: significant promotion effects
[2]; dose 10^−5 M
  Result (OD value): 0.171 ± 0.035
  Cell proliferation %: 124.82%
[2]; dose 10^−6 M
  Result (OD value): 0.227 ± 0.011
  Cell proliferation %: 165.69%
[2]; dose 10^−7 M
  Result (OD value): 0.304 ± 0.051
  Cell proliferation %: 221.90%
Rat hippocampus; 15 min after administration
  Relative PS (PSA %): 87.51 ± 19.57%
Rat hippocampus; 30 min after administration
  Relative PS (PSA %): 97.43 ± 32.15%
Rat hippocampus; 45 min after administration
  Relative PS (PSA %): 111.47 ± 46.02%
Rat hippocampus; 60 min after administration
  Relative PS (PSA %): 137.15 ± 57.17%

## CN1C(=O)[C@@H](O)[C@H](c2ccccc2)[C@@]1(O)[C@@H](O)c1ccccc1 [(+)II2, (+)-(3S,4S,5R,6S)-5-hydroxy-clausenamide]
[2]; dose 10^−5 M
  Result (OD value): 0.076 ± 0.008
  Cell proliferation %: 55.47%
[2]; dose 10^−6 M
  Result (OD value): 0.220 ± 0.023
  Cell proliferation %: 160.58%
[2]; dose 10^−7 M
  Result (OD value): 0.175 ± 0.059
  Cell proliferation %: 127.74%
Rat hippocampus; 15 min after administration
  Relative PS (PSA %): 81.48 ± 6.13%
Rat hippocampus; 30 min after administration
  Relative PS (PSA %): 77.33 ± 8.93%
Rat hippocampus; 45 min after administration
  Relative PS (PSA %): 82.56 ± 1.87%
Rat hippocampus; 60 min after administration
  Relative PS (PSA %): 99.92 ± 6.26%

## CN1C(=O)[C@@H](O)[C@H](c2ccccc2)[C@]1(O)[C@@H](O)c1ccccc1 [(−)II3, (−)-(3S,4S,5S,6S)-5-hydroxy-clausenamide]
[2]; dose 10^−5 M
  Result (OD value): 0.088 ± 0.006
  Cell proliferation %: 64.23%
[2]; dose 10^−6 M
  Result (OD value): 0.187 ± 0.020
  Cell proliferation %: 136.50%
[2]; dose 10^−7 M
  Result (OD value): 0.168 ± 0.076
  Cell proliferation %: 122.63%
Rat hippocampus; 15 min after administration
  Relative PS (PSA %): 92.83 ± 17.54%
Rat hippocampus; 30 min after administration
  Relative PS (PSA %): 87.11 ± 30.54%
Rat hippocampus; 45 min after administration
  Relative PS (PSA %): 97.34 ± 25.71%
Rat hippocampus; 60 min after administration
  Relative PS (PSA %): 98.30 ± 28.59%

## COc1ccc(CN2C(=O)C(O)C(c3ccccc3)C2C(O)c2ccccc2)cc1 (racemic) [(±)III9]
[2]; dose 10^−5 M
  Result (OD value): 0.120 ± 0.027
  Cell proliferation %: 87.59%
[2]; dose 10^−6 M
  Result (OD value): 0.138 ± 0.012
  Cell proliferation %: 100.73%
[2]; dose 10^−7 M
  Result (OD value): 0.212 ± 0.011
  Cell proliferation %: 154.74%
Rat hippocampus; 15 min after administration
  Relative PS (PSA %): 115.6 ± 17.94%
Rat hippocampus; 30 min after administration
  Relative PS (PSA %): 107.18 ± 20.09%
Rat hippocampus; 45 min after administration
  Relative PS (PSA %): 103.77 ± 15.36%
Rat hippocampus; 60 min after administration
  Relative PS (PSA %): 112.72 ± 8.95%

## CN1C(=O)[C@@H](O)[C@H](c2ccccc2)[C@]1(O)[C@H](O)c1ccccc1 [(+)II1, (+)-(3S,4S,5S,6R)-5-hydroxy-clausenamide]
[2]; dose 10^−5 M
  Result (OD value): 0.093 ± 0.007
  Cell proliferation %: 67.88%
[2]; dose 10^−6 M
  Result (OD value): 0.264 ± 0.036
  Cell proliferation %: 192.70%
[2]; dose 10^−7 M
  Result (OD value): 0.250 ± 0.016
  Cell proliferation %: 182.48%
Rat hippocampus; 15 min after administration
  Relative PS (PSA %): 144.86 ± 49.53%
Rat hippocampus; 30 min after administration
  Relative PS (PSA %): 168.02 ± 49.16%
Rat hippocampus; 45 min after administration
  Relative PS (PSA %): 194.32 ± 56.65 %
Rat hippocampus; 60 min after administration
  Relative PS (PSA %): 233.24 ± 55.62 %
Rat hippocampus; P<0.05 vs. control, n=5
  effects on synaptic transmission: significantly upstanding effects

## O=C1C(O)C(c2ccccc2)C(C(O)c2ccccc2)N1CO (single isomer, unassigned; (-)) [(−)CM1, (−) N-hydroxymethyl norclausenamide]
[1]
  content in the metabolites of (−) clausenamide compared with the corresponding (+) isomers in the metabolites of (+) clausenamide: significantly higher

## O=C1C(O)C(c2ccccc2)C(C(O)c2ccccc2)N1Cc1ccccc1 (racemic) [(±)III8]
[2]; dose 10^−5 M
  Result (OD value): 0.096 ± 0.022
  Cell proliferation %: 70.07%
[2]; dose 10^−6 M
  Result (OD value): 0.144 ± 0.038
  Cell proliferation %: 105.11%
[2]; dose 10^−7 M
  Result (OD value): 0.221 ± 0.043
  Cell proliferation %: 161.31%
Rat hippocampus; 15 min after administration
  Relative PS (PSA %): 67.75 ± 26.84%
Rat hippocampus; 30 min after administration
  Relative PS (PSA %): 68.48 ± 21.15%
Rat hippocampus; 45 min after administration
  Relative PS (PSA %): 79.25 ± 16.62%
Rat hippocampus; 60 min after administration
  Relative PS (PSA %): 98.97 ± 14.26%
